From patent US20030118983A1, “Rapid screening procedure for inflammation mediators” (priority 2000, published 2003)
“And” between values parts separate entries of the source, which are not always exact repeats. Equal entries are not always repeated.

Key:
[1] = tested on: MNCs; experiment: Intracellular oxidants (DCF) in MNCs activated with cytokine cocktail and hemoglobin; format: cell-based, human; conditions: for dampening effect on oxidant production: cytokine and hemoglobin activation, 10 μM steroid
Protocol: (§1) PMNs and MNCs were harvested from blood via centrifugation with equal volumes of Polymorphprep, GIBCO (Grand Island, N.Y.) at 550×g for 35 minutes at 20° C. […] Replicate experiments were conducted with three to five donors from a pool of six consented male adults.
(§2) PMNs (10,000,000/ml) and MNCs (20,000,000/ml) were loaded with 2,7-dichlorodihydrofluorescein-diacetate (DCFH-DA) (2 μM) (Molecular Probes; Eugene Oreg.) in HBSS for 30 minutes at 37° C. in a water bath. Non fluorescent DCFH is oxidized to fluorescent DCF by a variety of oxidants. The approach is sensitive, reproducible, and capable of measuring wide concentration range of intracellular oxidants. […] Treated PMNs or MNCs were incubated for 1 or 5 h in HBSS amended with physiological concentrations of Ca^2+ (1.5 mM), Mg^2+ (900 μM), glutamine (1.0 mM); GIBCO; Grand Island, N.Y.), arginine (100 μM), amino acids (1×MEM)(GIBCO; Grand Island, N.Y.), and tetrahydrobiopterin (1.0 μM). Flow cytometric analyses were performed with an argon laser (488 nm) and emission light measured behind a filter transmitting 530/30 nm light on a FACCalibur, Becton Dickinson (San Jose, Calif.) with CELLQuest data acquisition and analysis software. PMNs or MNCs were gated by forward- and side-scatter. For each sample, 10,000 PMNs or MNCs were collected.
(§3) Statistical Analyses Intracellular oxidants in activated MNCs or PMNs treated with the three highest steroid concentrations or the L-NMMA treatment were compared to untreated activated MNCs or PMNs by Bonferroni corrected t-test.

[2] = tested on: PMNs; experiment: Intracellular oxidants (DCF) in PMNs activated with cytokine cocktail and hemoglobin; format: cell-based, human; conditions: for effect on oxidants in PMNs: cytokine and hemoglobin activated PMNs
Protocol: as §1, §2, §3

[3] = Organochlorine insecticide levels in serum of burn patients; format: in vivo, human; conditions: for mean peak serum levels: nonsurviving burn patients; for mean peak serum levels / mean peak serum levels higher than in surviving patients: PBD5; for mean peak serum levels higher than in surviving patients: nonsurviving patients
Protocol: Patients and Subjects. Analyses of xenoestrogens in archived serum were performed on samples from seven nonsurviving males and seven age- and burn-size matched surviving male burn patients admitted between 1991 and 1994 to the United States Army Institute of Surgical Research burn care facility. The criteria for selection of subjects were age (approximately 40-70 years), total burn surface area (≧25%), postburn survival (≧7 days) and lack of preburn disease. Inhalation injury was present in 6 of 7 surviving and 5 of 7 nonsurviving patients. In the non-surviving group, two patients died between postburn day (PBD) 7 and 11. Age-matched healthy males (n=12) were used as control subjects.
Levels of insecticides in serum of burn patients on postburn day (PBD) 1, 3, 5, 7, and 11 were determined in accordance with a previously reported method25. This method used a Dynamic Thermal Stripper (Environchem, Kemblesville, Pa.) to sparge insecticides from 50 μl of serum. The insecticides were collected on Tenax solid sorbent and subsequently thermally desorbed with a Unacon 810 (Environchem, Kemblesville, Pa.) into a HP 5890 gas chromatograph (Hewlett Packard, Palo Alto, Calif.) equipped with a SPB-608 30 M, fused silica capillary column (J & W Scientific, Folsom, Calif.) and an electron capture detector. Levels of insecticides in serum stored at −75° C. were determined by comparing responses to standard curves constructed from certified standards (Ultra Scientific, Kingstown, R.I.) spiked into a composite sample consisting of serum from 3 subjects, previously determined to have low levels of each insecticide. For consistency, each patient's samples were analyzed during the same day by postburn day (PBD 1, 3, 7, and 11). The detection limit for HE and OC was 76 and 56 pg/mL, respectively. A reference serum sample pooled from 3 patients having medium levels of each insecticide was measured 1-2 times during each day of analyses. […] Serum cholesterol and triglyceride concentrations were determined using Instrumentation Laboratory reagents and analyzed on a Monarch Clinical Chemistry System (Instrumentation Laboratories, Inc., Lexington, Mass.).

[4] = tested on: PMNs; conditions: for decrease in DCFH oxidation: 10^−4 M oxidant; for increase in DCFH oxidation over control levels: 10^−5 M oxidant, 30 min
[5] = tested on: PMNs; experiment: Propidium iodide staining of oxidant-treated PMNs (cell membrane integrity); conditions: oxidant levels ≧10^−7 M
[6] = tested on: PMNs; experiment: Heme protein effect on DCFH oxidation in unstimulated, LPS and TNFα-, and PMA-stimulated PMNs, with or without NOS inhibitors, SOD or antioxidants; format: cell-based, human; conditions: PMA-stimulated PMNs with arginine
Protocol: DCFH-loaded PMNs were incubated with and without N-methyl-L-arginine (L-NMMA; 5 mM; Calbiochem, San Diego, Calif.) and heme proteins (0.3-1000 μg/mL) at 37 ° C. for 10 minutes. […] In unstimulated and LPS and TNFα -stimulated PMNs, the treatments were oxyMb, or oxyMb+L-NMMA (5 mM). […] RBC cell membranes were ruptured using a micro-ultrasonic cell disrupter, Kontes, Janke and Kukel Gmbh and CO. (Stauten, Germany). […] OxyMb was prepared by mixing excess sodium dithionite with Mb for 1 h and inorganic sulfur compounds were removed by dialyzing in HBSS buffer for 3 h. Percent iron in the ferric state in non-dithionite treated oxyMb or oxyHb was not assessed. […] […] cross-linked Hb was a gift from Walter Reed Army Institute of Research. […] Also, various concentrations of bovine liver Cu, Zn SOD (30-10,000 U/mL; 8-2640 μg/mL) and 30 μg/mL oxyMb were incubated with PMA-stimulated PMNs pretreated with and without L-NMMA. Flow cytometric measurements of oxidant-induced DCF fluorescence were performed as described above.

[7] = tested on: PMNs; experiment: HE and 17β-E2 effects on intracellular oxidants (NO) in PMNs, DCFH oxidation; format: cell-based, human; conditions: for effect on HE-induced intracellular oxidants (NO): ICI 182,780 0.1 nM
Protocol: HE effects on intracellular levels of oxidants in PMNs were measured using a previously reported cytofluorometric procedure.
(§4) The purity of PMNs and lymphocytes was greater than 88% and 95%, respectively, and their viability, as determined by trypan blue-exclusion, was greater than 90%.

[8] = tested on: PMNs; experiment: HE-induced DNA strand breaks in PMNs (dUTP nick end labeling); format: cell-based, human; conditions: for effect on HE-induced DNA strand breaks: at HE-induced peak values (3-6 nM)
Protocol: HE-induced DNA strand breaks in PMNs were measured by flow cytometry using the tdt-mediated dUTP nick end labeling assay, In Situ Cell Death Detection Kit (Boehringer Mannheim, Indianapolis, Ind.) according to manufacturer's instructions. PMNs were incubated with L-NMMA, 17β-E2 receptor antagonists, TNFα, and varying concentrations of HE as described in the above HE-induced DCFH oxidation experiments with the exception that HE incubation time was 2 h instead of 40 min.
In Vitro measurements of oxidant production and cellular damage.

[9] = tested on: lymphocytes; experiment: HE effect on lymphocyte membrane integrity in mixed PMN/lymphocyte preparation (propidium iodide)
Protocol: HE effects on surrounding lymphocyte membrane integrity mediated by PMN-derived NO were determined by cytofluorometric measurements of intracellular propidium iodide levels in a mixed PMN/lymphocyte preparation using 100,000 lymphocytes and PMN/lymphocyte ratios of 0/1, 2/1, 4/1, 10/1). For comparison some aliquots of PMNs were loaded with L-NMMA (5 mM) or 2-(4-carboxyphenyl)-4,4,5,5-tetramethyl imidazoline-1-oxyl-3-oxide (carboxy-PTIO) (5 mM) (Calbiochem, La Jolla, Calif.), a NO scavenger, prior to incubating leukocytes with HE (1 nM) for 40 min.
as §4

[10] = tested on: PMNs; experiment: Heme protein effect on DCFH oxidation in unstimulated, LPS and TNFα-, and PMA-stimulated PMNs, with or without NOS inhibitors, SOD or antioxidants; format: cell-based, human; conditions: PMA-stimulated PMNs; L-NMMA 5 mM, L-NIO 5 mM, glutathione 25 μM and ascorbate 25 μM, human SOD 300 U/mL
[11] = TNFα 10 ng/mL added to HE-treated PMNs

In the case of C[C@]12CC[C@@H]3c4ccc(O)cc4CC[C@H]3[C@@H]1CC[C@@H]2O [17β-E2, 17β-estradiol], the “dampening effect on oxidant production” value ([1]; MNCs, after 1 h) is reported as 65% and the “effect on oxidants in PMNs” value [2] is reported as “no effect on oxidants”.
With ClC(Cl)=C(c1ccc(Cl)cc1)c1ccc(Cl)cc1 [DDE] the “increase of mean serum level” value ([3]; nonsurvivors, by PBD 11) was 2.5 times and the mean serum level ([3]; nonsurvivors, by PBD 11) was 3667 pg/mL and 183 nM.
In the case of CCN(CC)/[N+]([O-])=N/O.CCNCC [DEANO, diethylamine nitric oxide], the “decrease in DCFH oxidation” value [4] is reported as “approximately 25%”, the “increase in DCFH oxidation over control levels” value [4] is reported as 25 fold and the “PMNs staining positive for propidium iodide” value [5] is reported as 87%.
With O.O.O.O.[Cl][Fe][Cl] [FeCl2.4H2O, reference compound] the “effect on DCFH oxidation” value [6] was “produced a decrease in DCFH oxidation above 30 μg/mL”.
For OO [H2O2, hydrogen peroxide], the “decrease in DCFH oxidation” value [4] was “approximately 25%”, the “increase in DCFH oxidation over control levels” value [4] was 25 fold and the “PMNs staining positive for propidium iodide” value [5] was 87%.
In the case of ClC1=C(Cl)C2(Cl)C3C4OC4C(Cl)C3C1(Cl)C2(Cl)Cl (stereo not drawn) [HE], the “HE concentration of peak response of intracellular oxidants, with TNFα” value ([7]; co-incubation with TNFα 10 ng/mL) is reported as “approximately 0.1 nM”, the “HE concentration of peak response of DNA strand breaks, Gaussian curve” value ([8]; 2 h incubation) is reported as “approximately 5 nM” and the “HE concentration of peak response of DNA strand breaks, with TNFα” value ([8]; co-incubation with TNFα) is reported as “approximately 0.3 nM”. For the same molecule, the “mean peak serum levels” value [3] was 215 pg/ml and 0.55 nM, the “mean peak serum levels higher than in surviving patients” value [3] was “approximately 90%” and the “effect on cell membrane damage in lymphocytes” value ([9]; HE 1 nM, PMN/lymphocyte ratios above 2) was “increased cell membrane damage in the lymphocytes”.
For C[C@]12CC[C@@H]3c4ccc(O)cc4C[C@@H](CCCCCCCCC[S+]([O-])CCCC(F)(F)C(F)(F)F)[C@H]3[C@@H]1CC[C@@H]2O (stereo partly drawn) [ICI 182,780, reference compound], the “effect on HE-induced intracellular oxidants (NO)” value ([7]; L-NMMA 5 mM, tamoxifen 200 nM) was “completely eliminated the HE-induced increase in NO” and the “effect on HE-induced DNA strand breaks” value [8] was “nonsignificant trend for attenuating HE-induced DNA strand breaks”.
In the case of CC(=N)NCCCC[C@H](N)C(=O)O [L-NIL, L-N^6-(-1-Iminoethyl)lysine], the “effect on oxidants in activated MNCs” value ([1]; L-NIL 10 μM) is reported as “negligible effects on activated MNCs and PMNs” and the “effect on oxidants in activated PMNs” value ([2]; L-NIL 10 μM) is reported as “negligible effects on activated MNCs and PMNs”.
In the case of ClC1=C(Cl)[C@]2(Cl)[C@H]3[C@H]([C@H](Cl)[C@]4(Cl)O[C@H]34)[C@@]1(Cl)C2(Cl)Cl [OC], the “mean peak serum levels” value [3] is reported as 677 pg/ml and 1.59 nM and the “mean peak serum levels higher than in surviving patients” value [3] is reported as “approximately 90%”.
For CC(=O)[C@H]1CC[C@H]2[C@@H]3CCC4=CC(=O)CC[C@]4(C)[C@H]3CC[C@]12C [P4, progesterone], the “dampening effect on oxidant production” value ([1]; MNCs, after 1 h) was 0% and the “effect on oxidants in PMNs” value [2] was “no effect on oxidants”.
With CC1(C)N([O])C(c2ccc(C(=O)O)cc2)=[N+]([O-])C1(C)C [PTIO, 2-(4-carboxyphenyl)-4,4,5,5-tetramethyl imidazoline-1-oxyl-3-oxide, reference compound] the “effect on HE-induced cell membrane damage in lymphocytes” value ([9]; co-incubation with HE 1 nM) was “attenuated the HE-induced cell membrane damage in the lymphocytes”.
For C[C@]12CCC(=O)C=C1CC[C@@H]1[C@@H]2[C@@H](O)C[C@@]2(C)[C@H]1CC[C@]2(O)C(=O)CO [cortisol], the “time dependence of oxidant reduction in MNCs” value ([1]; 5 h versus 1 h of stimulation) was “reduced oxidant levels in MNCs to a greater extent after 5 h as compared to 1 h of stimulation”, the “dampening effect on oxidant production” value ([1]; MNCs, after 1 h) was 20% and the “effect on oxidants in PMNs” value [2] was “modest trend for reducing oxidant levels after 5 h”.
With CC/C(=C(\c1ccccc1)c1ccc(OCCN(C)C)cc1)c1ccccc1 [tamoxifen, reference compound] the “effect on 17β-E2-induced intracellular oxidants (NO)” value ([7]; L-NMMA 5 mM, tamoxifen 200 nM) was “completely inhibited the 17β-E2-induced NO levels”, the “effect on HE-induced intracellular oxidants (NO)” value ([7]; L-NMMA 5 mM, tamoxifen 200 nM) was “completely eliminated the HE-induced increase in NO” and the “effect on HE-induced DNA strand breaks” value [8] was “nonsignificant trend for attenuating HE-induced DNA strand breaks”.
In the case of TNFα, the “increase in amplitude of HE intracellular oxidant Gaussian curve” value [7, 11] is reported as 60%, the “left shift of HE intracellular oxidant Gaussian curve” value [7, 11] is reported as 10 fold and the “increase in amplitude of HE DNA strand break Gaussian curve” value ([8]; TNFα added to HE) is reported as 445%. The “left shift of HE DNA strand break Gaussian curve” value ([8]; TNFα added to HE) was 10 fold.
In the case of “hemoglobin: human hemoglobin (100 μg/mL)”, the “increase of mean oxidized DCF over unstimulated background” value ([1]; MNCs, after 1 h, data not shown) is reported as 41%, the “increase of mean intracellular oxidized DCF over unstimulated background” value ([1]; MNCs, after 5 h) is reported as 259% and the “increase of mean oxidized DCF over unstimulated background” value ([2]; PMNs, after 1 h, data not shown) is reported as 172%. The “increase of mean intracellular oxidized DCF over unstimulated background” value ([2]; PMNs, after 5 h) was 197%.
With “human erythrocyte Cu, Zn SOD: superoxide scavenger, superoxide dismutase from human erythrocytes” the “effect on oxyMb-induced DCFH oxidation” value [10] was “increased oxyMb induced-DCFH oxidation”.
With oxyhemoglobin [oxyHb] the “less efficient than oxyMb in inducing DCFH oxidation” value [6] was 20-40%.
